Key:
Type in all cases: cell-based
human Nav1.5 [1] = target: T1, human Nav1.5 (Homo sapiens (Human), UniProt Q14524); assay: Qpatch automated patch-clamp, peak Nav1.5 current inhibition, 1 Hz sinus rate, ventricular condition (holding potential -100 mV); conditions: CHO-K1 cells stably expressing human Nav1.5, without ATX-II
From the text: (§1) Electrophysiology was used to measure the ionic currents in isolated living cells using automated patch-clamp recording, performed using an automated patch-clamp machine called Qpatch (Sophion Bioscience). Two different assay conditions were used to identify compounds with atrial-selective potential. The 5-Hz AF-like assay has more depolarized holding potential at −85 mV to mimic atrial resting membrane potential (RMP) and was used to identify compounds of strong rate-dependence. Active, rate-dependent compounds were then screened at 1 Hz (i.e., sinus rate) at the holding potential of −100 mV to mimic the ventricular scenario and help identify compounds with the largest potency separation or attenuation from the 5-Hz AF-like assay. Such compounds have the potential for treating AF without the QRS liability inherent to Class Ic drugs.
(§2) The sodium current conducted through a cell (via Nav1.5) or electrical signals were processed through a low-pass filter at 5 KHz, re-digitalized and acquired at 20 kHz. Series resistance was not compensated and leak subtraction was performed.
(§3) 1 to 3 million Chinese Hamster Ovary cells (also known as CHO-K1) stably expressing human Nav1.5 were seeded into […] culture flasks with 25 mL medium (consisting of Gibco Dulbecco's Modified Eagle Medium as a base medium with 1% MEM non-essential amino acids, 400 μg/mL Geneticin, 5 μg/mL puromycin and 10% fetal bovine serum) 48-72 hours prior to the experiments. On the day of the experiment, cells were washed once with phosphate-buffered saline (also known as PBS; Gibco) detached with Detachin™ (Genlantis), and re-suspended in CHO—S-SFM II media (Gibco) at 200,000 cells/mL. The CHO—S-SFM II was replaced with assay solutions prior to the assays. Whole-cell currents were recorded at room temperature in the whole-cell configuration. The external aqueous assay solution (pH=7.4; Osm=307-315) contained the following (the concentration for each component is expressed in parentheses in mM): NaCl (140 mM), KCl (4 mM), CaCl2) (2 mM), MgCl2 (1 mM), 4-(2-hydroxyethyl)-1-piperazineethanesulfonic acid, also known as HEPES (10 mM), and glucose (5 mM). The internal aqueous assay solution (pH=7.2; Osm=292-295) contained the following (the concentration for each component is expressed in parentheses in mM): CsF (110 mM), CsCl (10 mM), NaCl (10 mM), HEPES (10 mM), and ethylene glycolbis(β-aminoethyl ether)-N,N,N′,N′-tetraacetic acid, also known as EGTA (10 mM).
(§4) To assess peak Nav1.5 current inhibition mimicking a ventricular condition at sinus rate with or without ATX-II (Nav1.5 IC50 (1 Hz, ATXII) (μM) or (1 Hz, Sinus Rate) (μM)), compounds were first prepared at 10 mM in DMSO, and cells were pre-incubated with test compounds at each concentration for 3 min. in an ascending order of 0, 0.37, 1.1, 3.3, 10 and 30 uM. In the assay with ATX-II (Alomone Labs), 50 nM ATX-II was included during the 3-min. compound incubation. A square pulse (−10 mV; 400 ms and a holding potential at −100 mV) was run at 1 Hz for 25 s until no further inhibition or Nav1.5 current change was observed. The percent inhibition (expressed as ([Iafter compound treatment/Ibefore compound treatment]×100%) is calculated by normalizing the peak current amplitude at the last pulse of each of the 6 compound concentrations by the amplitude before exposure to the test compound. The compiled data was further normalized by vehicle control (DMSO) to account for Nav1.5 current run-down, and IC50 was calculated by Matlab (MathWorks, USA).

human Nav1.5 [2] = target: T1, human Nav1.5; assay: Qpatch automated patch-clamp, peak Nav1.5 current inhibition, 5-Hz AF-like assay (holding potential -85 mV); conditions: CHO-K1 cells stably expressing human Nav1.5, holding potential -85 mV, Table 5, read-out: Nav1.5 IC50 (5 Hz, AF Rate)
From the text: as §1, §2, §3
To assess peak Nav1.5 current inhibition in an atrial fibrillation-mimicking condition (Nav1.5 IC50 (5 Hz, AF-like rate) (μM)), compounds were first prepared at 10 mM in DMSO, and cells were pre-incubated with test compounds at each concentration for 3 min. in an ascending order of 0, 0.37, 1.1, 3.3, 10 and 30 μM. An atrial action potential-like protocol consisting of a voltage ramp (+10 mV to −85 mV for a 150 ms duration and a holding potential at −85 mV) was then applied to cells at 5 Hz for 12 s until no further current change or inhibition was observed. The percent inhibition (expressed as ([Iafter compound treatment/Ibefore compound treatment]×100%) is calculated by normalizing the peak current amplitude at the last pulse of each of the 6 compound concentrations by the amplitude before exposure to the test compound. The compiled data was further normalized by vehicle control (DMSO) to account for Nav1.5 current run-down, and IC50 was calculated by Matlab (MathWorks, USA).

human Nav1.5 [3] = target: T1, human Nav1.5; assay: Qpatch automated patch-clamp, peak Nav1.5 current inhibition, 1 Hz with 50 nM ATX-II (holding potential -100 mV); conditions: CHO-K1 cells stably expressing human Nav1.5, read-out: Nav1.5 IC50 (1 Hz, ATXII)
From the text: as §1, §2, §3, §4

T1 sequence (Q14524 whole entry): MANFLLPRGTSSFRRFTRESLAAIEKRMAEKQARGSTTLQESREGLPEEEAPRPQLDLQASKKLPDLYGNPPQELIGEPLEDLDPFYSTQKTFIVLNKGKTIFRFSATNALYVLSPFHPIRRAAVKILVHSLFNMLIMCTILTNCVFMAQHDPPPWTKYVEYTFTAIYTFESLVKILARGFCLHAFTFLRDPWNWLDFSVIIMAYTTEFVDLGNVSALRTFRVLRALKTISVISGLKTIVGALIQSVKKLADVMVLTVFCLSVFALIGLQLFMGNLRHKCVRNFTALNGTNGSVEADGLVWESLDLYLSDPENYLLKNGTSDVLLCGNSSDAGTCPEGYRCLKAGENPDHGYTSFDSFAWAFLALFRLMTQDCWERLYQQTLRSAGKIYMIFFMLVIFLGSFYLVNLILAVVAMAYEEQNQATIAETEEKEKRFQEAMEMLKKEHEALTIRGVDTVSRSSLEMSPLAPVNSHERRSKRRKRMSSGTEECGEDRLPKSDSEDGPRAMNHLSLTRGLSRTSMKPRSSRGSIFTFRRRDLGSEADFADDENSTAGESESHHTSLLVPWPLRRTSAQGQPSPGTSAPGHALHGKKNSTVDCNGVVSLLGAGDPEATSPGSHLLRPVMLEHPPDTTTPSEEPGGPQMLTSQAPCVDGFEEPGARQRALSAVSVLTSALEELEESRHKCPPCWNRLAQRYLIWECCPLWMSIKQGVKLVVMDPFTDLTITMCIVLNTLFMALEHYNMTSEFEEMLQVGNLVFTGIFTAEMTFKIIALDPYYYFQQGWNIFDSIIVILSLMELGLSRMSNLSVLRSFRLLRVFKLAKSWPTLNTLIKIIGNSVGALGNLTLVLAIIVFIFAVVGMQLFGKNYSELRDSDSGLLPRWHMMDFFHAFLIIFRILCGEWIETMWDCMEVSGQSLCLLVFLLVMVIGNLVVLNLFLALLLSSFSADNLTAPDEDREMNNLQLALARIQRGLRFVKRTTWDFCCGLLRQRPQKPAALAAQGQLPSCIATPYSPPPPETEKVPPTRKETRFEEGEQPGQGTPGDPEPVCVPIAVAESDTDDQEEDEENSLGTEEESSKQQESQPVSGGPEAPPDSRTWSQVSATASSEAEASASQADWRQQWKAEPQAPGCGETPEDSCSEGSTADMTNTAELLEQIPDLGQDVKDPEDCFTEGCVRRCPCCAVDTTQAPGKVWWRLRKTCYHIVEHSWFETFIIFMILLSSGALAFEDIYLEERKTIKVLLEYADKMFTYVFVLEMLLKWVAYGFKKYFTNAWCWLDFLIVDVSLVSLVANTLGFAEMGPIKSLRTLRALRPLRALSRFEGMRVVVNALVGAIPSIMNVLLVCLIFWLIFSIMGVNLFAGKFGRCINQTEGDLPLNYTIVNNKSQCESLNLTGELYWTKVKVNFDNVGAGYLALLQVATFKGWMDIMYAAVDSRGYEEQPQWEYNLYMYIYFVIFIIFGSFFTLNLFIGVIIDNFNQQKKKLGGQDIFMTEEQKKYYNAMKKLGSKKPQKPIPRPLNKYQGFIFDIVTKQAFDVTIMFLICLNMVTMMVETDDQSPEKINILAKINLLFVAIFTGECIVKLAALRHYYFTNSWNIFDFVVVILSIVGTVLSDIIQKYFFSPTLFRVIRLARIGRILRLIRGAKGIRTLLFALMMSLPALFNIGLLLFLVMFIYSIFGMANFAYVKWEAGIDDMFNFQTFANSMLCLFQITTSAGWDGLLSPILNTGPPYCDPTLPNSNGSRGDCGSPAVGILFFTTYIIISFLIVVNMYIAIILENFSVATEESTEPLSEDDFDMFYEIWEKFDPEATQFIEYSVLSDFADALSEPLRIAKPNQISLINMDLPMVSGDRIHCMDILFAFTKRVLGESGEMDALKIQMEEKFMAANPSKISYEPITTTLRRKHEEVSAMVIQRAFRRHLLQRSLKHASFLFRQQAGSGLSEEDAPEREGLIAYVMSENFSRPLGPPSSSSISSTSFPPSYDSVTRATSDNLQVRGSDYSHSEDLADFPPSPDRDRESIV

SMILES: CC(O)(CS(N)(=O)=O)c1cccc(-c2nnn(Cc3c(F)ccc4c3OC(F)(F)O4)n2)n1 (single isomer, unassigned) [Example 3, (R or S)-2-hydroxy-2-(6-(2-((2,2,5-trifluorobenzo[d][1,3]dioxol-4-yl)methyl)-2H-tetrazol-5-yl)pyridin-2-yl)propane-1-sulfonamide]
- IC50 (human Nav1.5 [1]): > 30 µM
- IC50 (human Nav1.5 [2]): 7.5 µM

SMILES: CC(O)(CS(N)(=O)=O)c1cccc(-c2nnn(Cc3c(F)ccc4c3OC(F)(F)O4)n2)n1 (single isomer, unassigned) [Example 4, (R or S)-2-hydroxy-2-(6-(2-((2,2,5-trifluorobenzo[d][1,3]dioxol-4-yl)methyl)-2H-tetrazol-5-yl)pyridin-2-yl)propane-1-sulfonamide]
- IC50 (human Nav1.5 [1]): > 30 µM
- IC50 (human Nav1.5 [2]): 6.7 µM

SMILES: CC(O)(CS(N)(=O)=O)c1cc(-c2nnn(Cc3cc(OC(F)(F)F)ccc3F)n2)ccc1F (single isomer, unassigned) [Example 5, (R or S)-2-(2-fluoro-5-(2-(2-fluoro-5-(trifluoromethoxy)benzyl)-2H-tetrazol-5-yl)phenyl)-2-hydroxypropane-1-sulfonamide]
- IC50 (human Nav1.5 [1]): > 30 µM
- IC50 (human Nav1.5 [2]): 7.9 µM

SMILES: CC(O)(CS(N)(=O)=O)c1cc(-c2nnn(Cc3cc(OC(F)(F)F)ccc3F)n2)ccc1F (single isomer, unassigned) [Example 6, (R or S)-2-(2-fluoro-5-(2-(2-fluoro-5-(trifluoromethoxy)benzyl)-2H-tetrazol-5-yl)phenyl)-2-hydroxypropane-1-sulfonamide]
- IC50 (human Nav1.5 [1]): > 30 µM
- IC50 (human Nav1.5 [2]): 7.9 µM

SMILES: CC(c1cccc(-c2nnn(Cc3cc(OC(F)(F)F)ccc3F)n2)n1)C(CO)S(N)(=O)=O (single isomer, unassigned) [Example 31, (2R or 2S, 3R or 3S)-3-(6-(2-(2-fluoro-5-(trifluoromethoxy)benzyl)-2H-tetrazol-5-yl)pyridin-2-yl)-1-hydroxybutane-2-sulfonamide]
- IC50 (human Nav1.5 [1]): 7.8 µM
- IC50 (human Nav1.5 [2]): 1.1 µM

SMILES: CC(c1cccc(-c2nnn(Cc3cc(OC(F)(F)F)ccc3F)n2)n1)C(CO)S(N)(=O)=O (single isomer, unassigned) [Example 32, (2R or 2S,3R or 3S)-3-(6-(2-(2-fluoro-5-(trifluoromethoxy)benzyl)-2H-tetrazol-5-yl)pyridin-2-yl)-1-hydroxybutane-2-sulfonamide]
- IC50 (human Nav1.5 [1]): 28 µM
- IC50 (human Nav1.5 [2]): 2.7 µM

SMILES: CC(c1cccc(-c2nnn(Cc3cc(OC(F)(F)F)ccc3F)n2)n1)C(CO)S(N)(=O)=O (single isomer, unassigned) [Example 33, (2R or 2S,3R or 3S)-3-(6-(2-(2-fluoro-5-(trifluoromethoxy)benzyl)-2H-tetrazol-5-yl)pyridin-2-yl)-1-hydroxybutane-2-sulfonamide]
- IC50 (human Nav1.5 [1]): 6.7 µM
- IC50 (human Nav1.5 [2]): 1.3 µM

SMILES: CC(c1cccc(-c2nnn(Cc3cc(OC(F)(F)F)ccc3F)n2)n1)C(CO)S(N)(=O)=O (single isomer, unassigned) [Example 34, (2R or 2S, 3R or 3S)-3-(6-(2-(2-fluoro-5-(trifluoromethoxy)benzyl)-2H-tetrazol-5-yl)pyridin-2-yl)-1-hydroxybutane-2-sulfonamide]
- IC50 (human Nav1.5 [1]): > 30 µM
- IC50 (human Nav1.5 [2]): 2.2 µM

SMILES: CC(O)(CS(N)(=O)=O)c1cccc(-c2nc(Cc3cc(OC(F)(F)F)ccc3F)no2)n1 (single isomer, unassigned) [Example 58, (R or S)-2-(6-(3-(2-fluoro-5-(trifluoromethoxy)benzyl)-1,2,4-oxadiazol-5-yl)pyridin-2-yl)-2-hydroxypropane-1-sulfonamide]
- IC50 (human Nav1.5 [3]): > 30 µM
- IC50 (human Nav1.5 [2]): 5 µM

SMILES: CC(O)(CS(N)(=O)=O)c1cccc(-c2cn(Cc3cc(OC(F)(F)F)ccc3F)nn2)n1 (single isomer, unassigned) [Example 59, (R or S)-2-(6-(1-(2-fluoro-5-(trifluoromethoxy)benzyl)-1H-1,2,3-triazol-4-yl)pyridin-2-yl)-2-hydroxypropane-1-sulfonamide]
- IC50 (human Nav1.5 [3]): 8.6 µM
- IC50 (human Nav1.5 [2]): 3.4 µM

SMILES: CC(O)(CS(N)(=O)=O)c1cccc(-c2cn(Cc3cc(OC(F)(F)F)ccc3F)nn2)n1 (single isomer, unassigned) [Example 60, (R or S)-2-(6-(1-(2-fluoro-5-(trifluoromethoxy)benzyl)-1H-1,2,3-triazol-4-yl)pyridin-2-yl)-2-hydroxypropane-1-sulfonamide]
- IC50 (human Nav1.5 [3]): 16 µM
- IC50 (human Nav1.5 [2]): 7 µM

SMILES: CC(O)(CS(N)(=O)=O)c1cccc(-c2cnn(Cc3cc(OC(F)(F)F)ccc3F)n2)n1 (single isomer, unassigned) [Example 61, (R or S)-2-(6-(2-(2-fluoro-5-(trifluoromethoxy)benzyl)-2H-1,2,3-triazol-4-yl)pyridin-2-yl)-2-hydroxypropane-1-sulfonamide]
- IC50 (human Nav1.5 [3]): > 30 µM
- IC50 (human Nav1.5 [2]): 5 µM

SMILES: CC(O)(CS(N)(=O)=O)c1cccc(-c2nnn(Cc3cc(OC(F)(F)F)ccc3F)n2)c1 (single isomer, unassigned) [Rac-25 + 26, (R or S)-2-(3-(2-(2-fluoro-5-(trifluoromethoxy)benzyl)-2H-tetrazol-5-yl)phenyl)-2-hydroxypropane-1-sulfonamide]
- IC50 (human Nav1.5 [3]): > 30 µM
- IC50 (human Nav1.5 [2]): 2.2 µM

SMILES: CC(O)(CS(N)(=O)=O)c1cccc(-c2nnn(Cc3cc(OCC(F)(F)F)ccc3F)n2)n1 (single isomer, unassigned) [Rac-29+30, (R or S)-2-(6-(2-(2-fluoro-5-(2,2,2-trifluoroethoxy)benzyl)-2H-tetrazol-5-yl)pyridin-2-yl)-2-hydroxypropane-1-sulfonamide]
- IC50 (human Nav1.5 [3]): 3 µM
- IC50 (human Nav1.5 [2]): 2.5 µM

SMILES: CC(O)(CS(N)(=O)=O)c1cccc(-c2ccn(Cc3cc(OC(F)(F)F)ccc3F)n2)n1 (single isomer, unassigned) [Rac-37 + 38, (R or S)-2-(6-(1-(2-fluoro-5-(trifluoromethoxy)benzyl)-1H-pyrazol-3-yl)pyridin-2-yl)-2-hydroxypropane-1-sulfonamide]
- IC50 (human Nav1.5 [3]): > 30 µM
- IC50 (human Nav1.5 [2]): 2.3 µM

SMILES: CC(O)(CS(N)(=O)=O)c1cccc(-c2cn(Cc3cc(OC(F)(F)F)ccc3F)nn2)n1 (single isomer, unassigned) [Rac-59 + 60, (R or S)-2-(6-(1-(2-fluoro-5-(trifluoromethoxy)benzyl)-1H-1,2,3-triazol-4-yl)pyridin-2-yl)-2-hydroxypropane-1-sulfonamide]
- IC50 (human Nav1.5 [3]): 15 µM
- IC50 (human Nav1.5 [2]): 5.2 µM

SMILES: C[C@@](O)(CS(N)(=O)=O)c1cccc(-c2nnn(Cc3cc(OC(F)(F)F)ccc3F)n2)n1 [Example 2, (S)-2-(6-(2-(2-fluoro-5-(trifluoromethoxy)benzyl)-2H-tetrazol-5-yl)pyridin-2-yl)-2-hydroxypropane-1-sulfonamide]
- IC50 (human Nav1.5 [3]): > 30 µM
- IC50 (human Nav1.5 [2]): 4.7 µM
